Measured values as given in US10202360B2 (CELGENE QUANTICEL RESEARCH, INC., priority 2016, dated 2019).

Molecular target: CREBBP (Homo sapiens (Human), UniProt Q92793)
Assay: In vitro enzyme inhibition assay - CREBBP inhibition (AlphaScreen, biotinylated H4-tetraacetyl peptide)
Format: binding
Conditions: Table 28; AlphaScreen, H4-tetraacetyl peptide
Description: Determination of the IC50 for the CREBBP inhibitors disclosed herein was performed as follows: CREBBP was cloned and expressed in E. Coli as His-tag protein and purified by Nickel affinity and gel-filtration chromatography. […] CREBBP binding and inhibition was assessed by monitoring the interaction of biotinylated H4-tetraacetyl peptide (AnaSpec, H4K5/8/12/16(Ac), biotin-labeled) with the target using the AlphaScreen technology (Perkin Elmer). In a 384-well ProxiPlate CREBBP (50 nM final) was combined with peptide (20 nM final) in 50 mM HEPES (pH 7.3), 10 mM NaCl, 0.25 mM TCEP, 0.1% (w/v) BSA, and 0.005% (w/v) Brij-35 either in the presence of DMSO (final 0.4% DMSO) or compound dilution series in DMSO. After 20-minute incubation at room temperature, Alpha streptavidin donor beads and Nickel Chelate acceptor beads were added to a final concentration of 5 μg/mL. After two hours of equilibration, plates were read on an Envision instrument and the IC50 was calculated using a four parameter non-linear curve fit.
The ability of the compounds disclosed herein to inhibit CBP activity was quantified and the respective IC50 value was determined.

Sequence of CREBBP (Q92793 1081-1197): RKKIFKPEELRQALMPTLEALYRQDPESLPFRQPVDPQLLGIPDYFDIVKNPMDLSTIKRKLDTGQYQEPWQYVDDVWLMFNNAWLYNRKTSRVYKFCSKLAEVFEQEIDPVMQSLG

SMILES	IC50 [nM]
CCC(C)S(=O)(=O)Nc1cc(-c2ccc(=O)n(C)c2)nc(Oc2c(F)ccc(F)c2C)n1 (stereo not shown) [Example 351, N-(2-(3,6-difluoro-2-methylphenoxy)-6-(1-methyl-6-oxo-1,6-dihydropyridin-3-yl)pyrimidin-4-yl)butane-2-sulfonamide]	< 500
CCN(CC)c1cc(-c2ccc(=O)n(C)c2)nc(Oc2ccc(F)cc2F)n1 [Example 277, 5-(6-(diethylamino)-2-(2,4-difluorophenoxy)pyrimidin-4-yl)-1-methylpyridin-2(1H)-one]	< 500
CCCCS(=O)(=O)Nc1cc(-c2ccc(=O)n(C)c2)nc(Oc2c(F)ccc(C)c2Cl)n1 [Example 255, Butane-1-sulfonic acid [2-(2-chloro-6-fluoro-3-methyl-phenoxy)-6-(1-methyl-6-oxo-1,6-dihydro-pyridin-3-yl)-pyrimidin-4-yl]-amide]	< 500
Cc1cccc(Cl)c1Oc1nc(NC(C)c2ccccc2)cc(-c2ccc(=O)n(C)c2)n1 (stereo not shown) [Example 282, 5-(2-(2-chloro-6-methylphenoxy)-6-((1-phenylethyl)amino)pyrimidin-4-yl)-1-methylpyridin-2(1H)-one]	< 500
CCOc1ccc(C(C)Nc2cc(-c3ccc(=O)n(C)c3)nc(Oc3c(C)cccc3F)n2)cc1 (stereo not shown) [Example 278, 5-(6-((1-(4-ethoxyphenyl)ethyl)amino)-2-(2-fluoro-6-methylphenoxy)pyrimidin-4-yl)-1-methylpyridin-2(1H)-one]	< 500
CCCS(=O)(=O)Nc1cc(-c2ccc(=O)n(C)c2)nc(OC2CCOCC2)n1 [Example 354, N-(6-(1-methyl-6-oxo-1,6-dihydropyridin-3-yl)-2-((tetrahydro-2H-pyran-4-yl)oxy)pyrimidin-4-yl)propane-1-sulfonamide]	< 500
Cc1cccc(F)c1Oc1nc(N[C@H]2CCCc3ccccc32)cc(-c2ccc(=O)n(C)c2)n1 [Example 311, (S)-5-[2-(2-Fluoro-6-methyl-phenoxy)-6-(1,2,3,4-tetrahydro-naphthalen-1-ylamino)-pyrimidin-4-yl]-1-methyl-1H-pyridin-2-one]	< 500
CCCS(=O)(=O)Nc1nc(Oc2c(C)cccc2C)nc(-c2cc(C)c(=O)n(C)c2)n1 [Example 154, Propane-1-sulfonic acid [4-(1,5-dimethyl-6-oxo-1,6-dihydro-pyridin-3-yl)-6-(2,6-dimethyl-phenoxy)-[1,3,5]triazin-2-yl]-amide]	< 500
Cc1cccc(Cl)c1Oc1nc(NS(=O)(=O)CCC(C)C)cc(-c2ccc(=O)n(C)c2)n1 [Example 252, 3-Methyl-butane-1-sulfonic acid [2-(2-chloro-6-methyl-phenoxy)-6-(1-methyl-6-oxo-1,6-dihydro-pyridin-3-yl)-pyrimidin-4-yl]-amide]	< 500
Cn1cc(-c2cc(NCc3ccccc3)nc(Oc3ccc(F)cc3F)n2)ccc1=O [Example 274, 5-(6-(benzylamino)-2-(2,4-difluorophenoxy)pyrimidin-4-yl)-1-methylpyridin-2(1H)-one]	< 500
Cn1cc(-c2cc(NS(=O)(=O)CCCF)nc(Oc3c(F)cccc3Cl)n2)ccc1=O [Example 148, N-(2-(2-chloro-6-fluorophenoxy)-6-(1-methyl-6-oxo-1,6-dihydropyridin-3 yl)pyrimidin-4-yl)-3-fluoropropane-1-sulfonamide]	< 500
CCCCS(=O)(=O)Nc1cc(-c2ccc(=O)n(C)c2)nc(Oc2c(Cl)ccc(C)c2F)n1 [Example 258, Butane-1-sulfonic acid [2-(6-chloro-2-fluoro-3-methyl-phenoxy)-6-(1-methyl-6-oxo-1,6-dihydro-pyridin-3-yl)-pyrimidin-4-yl]-amide]	< 500
Cc1ccc(Cl)c(Oc2nc(NS(=O)(=O)C(C)C)cc(-c3ccc(=O)n(C)c3)n2)c1F [Example 261, Propane-2-sulfonic acid [2-(6-chloro-2-fluoro-3-methyl-phenoxy)-6-(1-methyl-6-oxo-1,6-dihydro-pyridin-3-yl)-pyrimidin-4-yl]-amide]	< 500
Cc1cccc(Cl)c1Oc1nc(N)cc(-c2ccc(=O)n(C)c2)n1 [Example 333, 5-[6-Amino-2-(2-chloro-6-methyl-phenoxy)-pyrimidin-4-yl]-1-methyl-1H-pyridin-2-one]	< 500
Cc1cccc(F)c1Oc1nc(NS(=O)(=O)C2CCCC2)nc(-c2cc(C)c(=O)n(C)c2)n1 [Example 184, Cyclopentanesulfonic acid [4-(1,5-dimethyl-6-oxo-1,6-dihydro-pyridin-3-yl)-6-(2-fluoro-6-methyl-phenoxy)-[1,3,5]triazin-2-yl]-amide]	< 500
Cc1cc(-c2cc(NS(=O)(=O)C(C)C)nc(OCC(C)C)n2)cn(C)c1=O [Example 152, N-(6-(1,5-dimethyl-6-oxo-1,6-dihydropyridin-3-yl)-2-isobutoxypyrimidin-4-yl)propane-2-sulfonamide]	< 500

SMILES	IC50 [nM]
CCC(F)S(=O)(=O)Nc1cc(-c2cc(C)c(=O)n(C)c2)nc(Oc2c(C)cccc2F)n1 (stereo not shown) [Example 169, 1-Fluoro-propane-1-sulfonic acid [6-(1,5-dimethyl-6-oxo-1,6-dihydro-pyridin-3-yl)-2-(2-fluoro-6-methyl-phenoxy)-pyrimidin-4-yl]-amide]	< 500
Cc1cc(-c2cc(NS(=O)(=O)C3CC3)nc(Oc3ccc(F)cc3F)n2)cn(C)c1=O [Example 63, N-(2-(2,4-difluorophenoxy)-6-(1,5-dimethyl-6-oxo-1,6-dihydropyridin-3-yl)pyrimidin-4-yl)cyclopropanesulfonamide]	< 500
CCCCS(=O)(=O)Nc1cc(-c2ccc(=O)n(C)c2)nc(Oc2c(F)ccc(F)c2C)n1 [Example 350, N-(2-(3,6-difluoro-2-methylphenoxy)-6-(1-methyl-6-oxo-1,6-dihydropyridin-3-yl)pyrimidin-4-yl)butane-1-sulfonamide]	< 500
CCS(=O)(=O)Nc1cc(-c2ccc(=O)n(C)c2)nc(Oc2c(F)cccc2C2CC2)n1 [Example 238, Ethanesulfonic acid [2-(2-cyclopropyl-6-fluoro-phenoxy)-6-(1-methyl-6-oxo-1,6-dihydro-pyridin-3-yl)-pyrimidin-4-yl]-amide]	< 500
Cc1cccc(C)c1Oc1nc(NS(=O)(=O)CC2CC2)cc(-c2cc(C)c(=O)n(C)c2)n1 [Example 82, 1-cyclopropyl-N-(6-(1,5-dimethyl-6-oxo-1,6-dihydropyridin-3-yl)-2-(2,6-dimethylphenoxy)pyrimidin-4-yl)methanesulfonamide]	< 500
CCCCS(=O)(=O)Nc1cc(-c2ccc(=O)n(C)c2)nc(OC2CCCCC2)n1 [Example 244, Butane-1-sulfonic acid [2-cyclohexyloxy-6-(1-methyl-6-oxo-1,6-dihydro-pyridin-3-yl)-pyrimidin-4-yl]-amide]	< 500
CCCS(=O)(=O)Nc1cc(-c2ccc(=O)n(C)c2)nc(Oc2c(F)cccc2F)n1 [Example 341, N-(2-(2,6-difluorophenoxy)-6-(1-methyl-6-oxo-1,6-dihydropyridin-3-yl)pyrimidin-4-yl)propane-1-sulfonamide]	< 500
CC(C)S(=O)(=O)Nc1cc(-c2ccc(=O)n(C)c2)nc(OC2CCCCC2)n1 [Example 247, Propane-2-sulfonic acid [2-cylcohexyloxy-6-(1-methyl-6-oxo-1,6-dihydro-pyridin-3-yl)-pyrimidin-4-yl]-amide]	< 500
Cc1cc(-c2cc(NS(=O)(=O)C(C)C)nc(Oc3ccc(F)cc3F)n2)cn(CC2CC2)c1=O [Example 49, Propane-2-sulfonic acid [6-(1-cyclopropylmethyl-5-methyl-6-oxo-1,6-dihydro-pyridin-3-yl)-2-(2,4-difluoro-phenoxy)-pyrimidin-4-yl]-amide]	< 500
CCCS(=O)(=O)Nc1cc(-c2cc(C)c(=O)n(C)c2)cc(Oc2c(C)cccc2C)n1 [Example 92, N-(6′-(2,6-dimethylphenoxy)-1,5-dimethyl-6-oxo-1,6-dihydro-[3,4′-bipyridin]-2′-yl)propane-1-sulfonamide]	< 500
Cc1cc(-c2cc(NS(=O)(=O)C(C)C)nc(Oc3cccc4c3ccn4C)n2)cn(C)c1=O [Example 76, N-(6-(1,5-dimethyl-6-oxo-1,6-dihydropyridin-3-yl)-2-((1-methyl-1H-indol-4-yl)oxy)pyrimidin-4-yl)propane-2-sulfonamide]	< 500
CCS(=O)(=O)Nc1cc(-c2ccc(=O)n(C)c2)nc(Oc2c(C)cccc2F)n1 [Example 116, Ethanesulfonic acid [2-(2-fluoro-6-methyl-phenoxy)-6-(1-methyl-6-oxo-1,6-dihydro-pyridin-3-yl)-pyrimidin-4-yl]-amide]	< 500
Cc1cccc(C#N)c1Oc1nc(NS(=O)(=O)CCCF)cc(-c2ccc(=O)n(C)c2)n1 [Example 123, 3-Fluoro-propane-1-sulfonic acid [2-(2-cyano-6-methyl-phenoxy)-6-(1-methyl-6-oxo-1,6-dihydro-pyridin-3-yl)-pyrimidin-4-yl]-amide]	< 500
Cc1ccc(Cl)c(Oc2nc(NS(=O)(=O)C(C)C)cc(-c3cc(C)c(=O)n(C)c3)n2)c1 [Example 5, Propane-2-sulfonic acid [2-(2-chloro-5-methyl-phenoxy)-6-(1,5-dimethyl-6-oxo-1,6-dihydro-pyridin-3-yl)-pyrimidin-4-yl]-amide]	< 500
Cc1cccc(F)c1Oc1nc(NS(=O)(=O)C(C)C)nc(-c2cc(C)c(=O)n(C)c2)n1 [Example 172, Propane-2-sulfonic acid [4-(1,5-dimethyl-6-oxo-1,6-dihydro-pyridin-3-yl)-6-(2-fluoro-6-methyl-phenoxy)-[1,3,5]triazin-2-yl]-amide]	< 500
